The values below come from ChEMBL document CHEMBL1201862, “PubChem BioAssay data set” (2004).

Molecules are shown by their SMILES.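 Cells were grown in 96-well plates and exposed to each compound for 48 hours at five concentrations; endpoints were interpolated linearly between bracketing concentrations, or set to the highest concentration if not reached. At the GI50, growth is halved.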 Active and inactive are the calls of the source. Cut-off read from the data, not from the text of the source: active = GI50 up to about 1.1 µM and inactive = higher.

Among the test systems are HT-29; SK-MEL-5; OVCAR-5; EKVX; LOX IMVI; UACC-257; DU-145; MDA-MB-231; SN12C; SF-539; SK-OV-3; U-251; Hs-578T; HOP-92; ACHN; HCT-15; A549; Malme-3M; PC-3; HCC 2998.
What all share (assay): NCI-60 cell line screen, 48 h

As to `CC(=O)O[C@H]1/C(=C/c2ccc(N(C)C)cc2)C[C@H]2[C@@H]3CC=C4C[C@@H](N5CCCC5)CC[C@]4(C)[C@H]3CC[C@]12C`, the GI50 with HT-29 is 63.2 µM (inactive); in the test on SK-MEL-5, > 100 µM (inactive); in the test with OVCAR-5, > 100 µM (inactive); in the test on EKVX, > 100 µM (inactive); with LOX IMVI it was 35.6 µM (inactive); with UACC-257 it was > 100 µM (inactive). The GI50 with DU-145, with MDA-MB-231, in the test on SN12C, with SF-539, in the test on SK-OV-3 and with U-251 was > 100 µM (inactive) each time. The GI50 was > 100 µM (inactive) with Hs-578T; > 100 µM (inactive) in the test with HOP-92; > 100 µM (inactive) in the test with ACHN; greater than 100 µM in the test on HCT-15; > 100 µM (inactive) in the test on A549; > 100 µM (inactive) in the test with Malme-3M. Further, the GI50 in the test on PC-3 was > 100 µM (inactive).
For `COc1ccc2nc3c([N+](=O)[O-])ccc(NCCCN(C)C)c3c(N)c2c1`, the GI50 is 0.845 µM (active) in the test with HT-29; 1.87 µM (inactive) in the test on SK-MEL-5; 1.43 µM (inactive) in the test with OVCAR-5; 1.74 µM (inactive) in the test on EKVX; 1.59 µM (inactive) in the test on LOX IMVI; > 10 µM (inactive) with UACC-257. The GI50 in the test with DU-145 was 1.67 µM (inactive); with MDA-MB-231, 1.28 µM (inactive); in the test on SN12C, 1.6 µM (inactive); with SF-539, 1.78 µM (inactive); with SK-OV-3, 1.45 µM (inactive); in the test with U-251 it was 1.57 µM (inactive). For the same compound, the GI50 in the test on Hs-578T was 2.78 µM (inactive); with HOP-92 it was 1.87 µM (inactive); in the test with ACHN, 1.14 µM (inactive); in the test on HCT-15, 1.3 µM; in the test on A549, 1.49 µM (inactive); in the test with Malme-3M, 1.42 µM (inactive). For the same compound, the GI50 in the test on PC-3 was 1.4 µM (inactive).
Turning to `O=C1c2ccccc2-c2ccc(NC(=O)C3CCCCC3C(=O)O)cc21` (stereo unspecified), the GI50 in the test with HT-29 was 87.3 µM (inactive); in the test with SK-MEL-5 it was > 100 µM (inactive); in the test on OVCAR-5, > 100 µM (inactive); in the test with EKVX, > 100 µM (inactive); in the test on LOX IMVI it was > 100 µM (inactive); in the test on UACC-257, > 100 µM (inactive). Besides, the GI50 is > 100 µM (inactive) in the test with DU-145; > 100 µM (inactive) with MDA-MB-231; 96.4 µM (inactive) in the test with SN12C; > 100 µM (inactive) in the test with SF-539; > 100 µM (inactive) with SK-OV-3; > 100 µM (inactive) with U-251. In addition, the GI50 in the test on Hs-578T is > 100 µM (inactive); with HOP-92 it was > 100 µM (inactive); in the test with ACHN it was > 100 µM (inactive); in the test on HCT-15, greater than 100 µM; in the test with A549, > 100 µM (inactive); in the test with Malme-3M, > 100 µM (inactive). Also, the GI50 in the test with PC-3 is > 100 µM (inactive).
On to `O=C1c2ccccc2C(=O)c2c1ccc(C(=O)O)c2-c1ccc2ccccc2c1`, for which the GI50 with HT-29 was 32.5 µM (inactive); in the test with SK-MEL-5 it was 16.9 µM (inactive); in the test on OVCAR-5, 22.5 µM (inactive); in the test on EKVX, 20.6 µM (inactive); in the test on LOX IMVI it was 18.9 µM (inactive); with UACC-257, 49.8 µM (inactive). In addition, the GI50 in the test with DU-145 is 16.2 µM (inactive); in the test with MDA-MB-231 it was 23.2 µM (inactive); in the test with SN12C, 29.1 µM (inactive); with SF-539 it was 25.8 µM (inactive); in the test with SK-OV-3, 31 µM (inactive); with U-251, 21.9 µM (inactive). In addition, the GI50 in the test on HCC 2998 is 25.9 µM (inactive); in the test on Hs-578T, 23.9 µM (inactive); with ACHN, 30.8 µM (inactive); with HCT-15, 19.6 µM; in the test with A549, 30.5 µM (inactive); with Malme-3M, 24.1 µM (inactive). The GI50 with PC-3 is 24.5 µM (inactive).
Take `O=C(O)c1ccccc1/C=N\N=C1NCCCCN1`: the GI50 with HT-29, with SK-MEL-5, in the test with OVCAR-5, with EKVX, in the test with LOX IMVI and in the test with UACC-257 was > 100 µM (inactive) throughout. The GI50 with DU-145, in the test on MDA-MB-231, in the test on SN12C, in the test with SF-539, in the test on SK-OV-3 and in the test on U-251 was > 100 µM (inactive) in each case. Moreover, the GI50 with HCC 2998 was > 100 µM (inactive); in the test on Hs-578T, > 100 µM (inactive); in the test with ACHN it was > 100 µM (inactive); with HCT-15, greater than 100 µM; with A549 it was > 100 µM (inactive); with Malme-3M, > 100 µM (inactive). Also, the GI50 in the test on PC-3 is > 100 µM (inactive).
`O=C(O)C(/C=C/c1ccccc1)c1ccccc1` (stereo unspecified): the GI50 with HT-29, with SK-MEL-5, with OVCAR-5, with EKVX, with LOX IMVI and in the test on UACC-257 was > 100 µM (inactive) throughout. The GI50 in the test on DU-145, with MDA-MB-231, in the test with SN12C, in the test with SF-539, in the test with SK-OV-3 and in the test on U-251 was > 100 µM (inactive) in each case. Besides, the GI50 in the test with Hs-578T was > 100 µM (inactive); in the test with HOP-92 it was > 100 µM (inactive); in the test with ACHN, > 100 µM (inactive); in the test on HCT-15, greater than 100 µM; in the test with A549, > 100 µM (inactive); with Malme-3M it was > 100 µM (inactive). For the same compound, in the test with PC-3, the GI50 was > 100 µM (inactive).
For `Cc1ccc(OCC2=NN3C(=O)/C(=C\c4ccc([N+](=O)[O-])o4)SC3N2)cc1` (stereo unspecified), the GI50 is 6.7 µM (inactive) with HT-29; 8.99 µM (inactive) in the test with SK-MEL-5; 19.2 µM (inactive) in the test with OVCAR-5; 12.1 µM (inactive) in the test on EKVX; 3.66 µM (inactive) in the test with LOX IMVI; 12.8 µM (inactive) with UACC-257. In addition, the GI50 is 5.68 µM (inactive) in the test on DU-145; 12.4 µM (inactive) in the test on MDA-MB-231; 16.9 µM (inactive) in the test with SN12C; 2 µM (inactive) with SF-539; 16.3 µM (inactive) in the test with SK-OV-3; 15.8 µM (inactive) in the test with U-251. Besides, the GI50 was 21.7 µM (inactive) in the test with Hs-578T; 2.8 µM (inactive) in the test on HOP-92; 1.71 µM (inactive) with ACHN; 2.42 µM with HCT-15; 19 µM (inactive) in the test on A549; 2.66 µM (inactive) in the test with Malme-3M. Further, the GI50 in the test on PC-3 was 5.5 µM (inactive).
For `Cc1cc2cc3c(O)nc(O)nc3nc2cc1C`, the GI50 in the test with HT-29, with SK-MEL-5, in the test with OVCAR-5, in the test with EKVX, with LOX IMVI and with UACC-257 was > 100 µM (inactive) in each case. Also, the GI50 in the test on DU-145, in the test on MDA-MB-231, in the test with SN12C, in the test on SF-539, in the test on SK-OV-3 and in the test on U-251 was > 100 µM (inactive) each time. Moreover, the GI50 is > 100 µM (inactive) in the test with Hs-578T; > 100 µM (inactive) with HOP-92; > 100 µM (inactive) with ACHN; greater than 100 µM in the test with HCT-15; > 100 µM (inactive) in the test with A549; > 100 µM (inactive) with Malme-3M. Besides, the GI50 with PC-3 was > 100 µM (inactive).
`C/C1=C/C2OC(=O)C3(C)C2C(CC2(C)OC1=CC2=O)OC3(O)C(C)C` (stereo unspecified): the GI50 was 28.3 µM (inactive) with HT-29; 23.6 µM (inactive) in the test on SK-MEL-5; 34.8 µM (inactive) with OVCAR-5; 47.6 µM (inactive) with EKVX; 31.4 µM (inactive) in the test with LOX IMVI; 26.9 µM (inactive) with UACC-257. Also, the GI50 is 59.8 µM (inactive) in the test on DU-145; > 100 µM (inactive) in the test on MDA-MB-231; 31.4 µM (inactive) in the test on SN12C; 41.4 µM (inactive) in the test on SF-539; 46 µM (inactive) with SK-OV-3; 23.9 µM (inactive) in the test with U-251. Further, the GI50 in the test with HCC 2998 was 20.9 µM (inactive); in the test with Hs-578T, 59 µM (inactive); in the test on ACHN it was 33.9 µM (inactive); in the test with HCT-15, 20.3 µM; in the test on A549, > 56 µM (inactive); with Malme-3M, 33.5 µM (inactive). Moreover, in the test on PC-3, the GI50 was 40.8 µM (inactive).
On to `COc1ccc(NC(=S)N/N=C\c2ccc(NC(C)=O)cc2)cc1`, for which the GI50 in the test on HT-29, with SK-MEL-5, in the test on OVCAR-5, in the test with EKVX, with LOX IMVI and in the test with UACC-257 was > 100 µM (inactive) each time. The GI50 in the test with DU-145, in the test with MDA-MB-231, in the test on SN12C, in the test on SK-OV-3, with U-251 and in the test on HCC 2998 was > 100 µM (inactive) throughout. The GI50 with Hs-578T, in the test on HOP-92, in the test on ACHN, in the test with A549, in the test on Malme-3M and in the test with PC-3 was > 100 µM (inactive) throughout.
On to `O=c1c(O)c(-c2cc(O)c(O)cc2O)oc2cc(O)c(C3OC(CO)C(O)C(O)C3O)c(O)c12` (stereo unspecified), for which the GI50 with HT-29, in the test with OVCAR-5, with EKVX, in the test with LOX IMVI, in the test on UACC-257 and with DU-145 was > 100 µM (inactive) throughout. For the same compound, the GI50 with MDA-MB-231, with SN12C, in the test on SF-539, with SK-OV-3, with U-251 and with Hs-578T was > 100 µM (inactive) each time. Moreover, the GI50 in the test on HOP-92 was > 100 µM (inactive); with ACHN, > 100 µM (inactive); in the test on HCT-15, greater than 100 µM; in the test with A549 it was > 100 µM (inactive); with PC-3, > 100 µM (inactive).
